Data reported in patent US4156724A, “N-acylamino-alpha-arylacetamido cephalosporins and antibacterial compositions and methods containing them” (Sumitomo Chemical Company, Limited, priority 1974, dated 1979).
Converted amounts (≈) assume the structure as drawn. Read-outs that look alike come from different tables or passages of the source.

Assays:
Format in all cases: cell-based
[1] = system: Staphylococcus aureus 209 P; assay: Minimum Inhibitory Concentration, Staphylococcus aureus 209 P; conditions: Staphylococcus aureus 209 P; for MIC: read-out: Minimum Inhibitory Concentration
Description: (§1) anti-microbial activity tests were carried out on the compounds obtained in the Examples.

[2] = system: Staphylococcus aureus FS 289; assay: Minimum Inhibitory Concentration, Staphylococcus aureus FS 289; conditions: Staphylococcus aureus FS 289, strain resistant to penicillin; for MIC: FS289, read-out: Minimum Inhibitory Concentration
Description: as §1
*Staphylococcus aureus FS 289: strain resistant to penicillin

[3] = system: Escherichia coli NIHJ; assay: Minimum Inhibitory Concentration, Escherichia coli NIHJ; conditions: for MIC: read-out: Minimum Inhibitory Concentration
Description: as §1

[4] = system: Klebsiella pneumoniae 602; assay: Minimum Inhibitory Concentration, Klebsiella pneumoniae 602; conditions: for Minimum Inhibitory Concentration: Klebsiella pneumoniae 602
Description: as §1

[5] = system: Proteus vulgaris HX 19; assay: Minimum Inhibitory Concentration, Proteus vulgaris HX 19; conditions: Proteus vulgaris HX 19; for MIC: HX19, read-out: Minimum Inhibitory Concentration
Description: as §1

[6] = system: Pseudomonas aeruginosa 104; assay: Minimum Inhibitory Concentration, Pseudomonas aeruginosa 104; conditions: Pseudomonas aeruginosa 104; for MIC: read-out: Minimum Inhibitory Concentration
Description: as §1

[7] = system: Serratia No. 72; assay: Minimum Inhibitory Concentration, Serratia No. 72
Description: as §1

[8] = system: Enterobacter aerogeneus No. 75; assay: Minimum Inhibitory Concentration, Enterobacter aerogeneus No. 75; conditions: Enterobacter aerogeneus No. 75; for MIC: read-out: Minimum Inhibitory Concentration
Description: as §1

[9] = Klebsiella pneumoniae, 602, Klebsiella pneumoniae 602, read-out: Minimum Inhibitory Concentration

CC(=O)OCC1=C(C(=O)O)N2C(=O)C(NC(=O)[C@H](NC(=O)c3cnc4cccnc4c3O)c3ccc(O)cc3)C2SC1 (stereo partly drawn) [Example 120, 7-[D-α-(4-Hydroxy-1,5-naphthyridine-3-carbonamido)-α-hydroxyphenylacetamido]cephalosporanic Acid]
MIC [1]: 0.78 µg/mL (≈ 1.31 µM)
MIC [2]: 6.25 µg/mL (≈ 10.5 µM)
MIC ([3]; Escherichia coli): 3.13 µg/mL (≈ 5.27 µM)
MIC ([4]; Klebsiella pneumoniae, 602, read-out: Minimum Inhibitory Concentration): 1.56 µg/mL (≈ 2.63 µM)
MIC [5]: 0.39 µg/mL (≈ 0.657 µM)
MIC [6]: 6.25 µg/mL (≈ 10.5 µM)
MIC [7]: 50 µg/mL (≈ 84.2 µM)
MIC [8]: 6.25 µg/mL (≈ 10.5 µM)

CC(=O)OCC1=C(C(=O)O)N2C(=O)C(NC(=O)[C@H](NC(=O)c3cnc4cccnc4c3O)c3ccc(O)c(Cl)c3)C2SC1 (stereo partly shown) [Example 122]
MIC [1]: 0.78 µg/mL (≈ 1.24 µM)
MIC [2]: 6.25 µg/mL (≈ 9.95 µM)
MIC ([3]; Escherichia coli NIHJ): 3.13 µg/mL (≈ 4.98 µM)
MIC [4, 9]: 3.13 µg/mL (≈ 4.98 µM)
MIC [5]: 0.39 µg/mL (≈ 0.621 µM)
MIC [6]: 6.25 µg/mL (≈ 9.95 µM)
MIC [7]: 50 µg/mL (≈ 79.6 µM)
MIC [8]: 6.25 µg/mL (≈ 9.95 µM)

CC(=O)OCC1=C(C(=O)O)N2C(=O)C(NC(=O)[C@H](NC(=O)c3cnc4nc(C)ccc4c3O)c3ccc(O)cc3)C2SC1 (stereo partly shown) [Example 123]
MIC [1]: 0.78 µg/mL (≈ 1.28 µM)
MIC [2]: 6.25 µg/mL (≈ 10.3 µM)
MIC ([3]; Escherichia coli NIHJ): 6.25 µg/mL (≈ 10.3 µM)
MIC [4, 9]: 3.13 µg/mL (≈ 5.15 µM)
MIC [5]: 0.78 µg/mL (≈ 1.28 µM)
MIC [6]: 6.25 µg/mL (≈ 10.3 µM)
MIC [7]: 100 µg/mL (≈ 165 µM)
MIC [8]: 12.5 µg/mL (≈ 20.6 µM)

CC(=O)OCC1=C(C(=O)O)N2C(=O)C(NC(=O)[C@H](NC(=O)c3nnc4ccccc4c3O)c3ccc(O)cc3)C2SC1 (stereo partly drawn) [Example 124, 7-[D-α-(4-hydroxycinnoline-3-carbonamido)-α-p-hydrxyphenylacetamido]cephalosporanic acid]
MIC [1]: 0.78 µg/mL (≈ 1.31 µM)
MIC [2]: 6.25 µg/mL (≈ 10.5 µM)
MIC ([3]; Escherichia coli NIHJ): 12.5 µg/mL (≈ 21.1 µM)
MIC [4, 9]: 12.5 µg/mL (≈ 21.1 µM)
MIC [5]: 0.78 µg/mL (≈ 1.31 µM)
MIC [6]: 12.5 µg/mL (≈ 21.1 µM)
MIC [7]: 100 µg/mL (≈ 168 µM)
MIC [8]: 25 µg/mL (≈ 42.1 µM)

Cc1nnc(SCC2=C(C(=O)O)N3C(=O)C(NC(=O)[C@H](NC(=O)c4cnccc4O)c4ccc(O)cc4)C3SC2)s1 (stereo partly drawn) [Example 125, 7-[D-α-(4-Hydroxypyridine-3-carbonamido)-α-p-hydroxyphenylacetamido]-3-(2-methyl-1,3,4-thiadiazol-5-yl)thiomethyl-3-cephem-4-carboxylic Acid]
MIC [1]: 0.39 µg/mL (≈ 0.634 µM)
MIC [2]: 6.25 µg/mL (≈ 10.2 µM)
MIC ([3]; Escherichia coli NIHJ): 6.25 µg/mL (≈ 10.2 µM)
MIC [4, 9]: 6.25 µg/mL (≈ 10.2 µM)
MIC [5]: 0.1 µg/mL (≈ 0.163 µM)
MIC [6]: 12.5 µg/mL (≈ 20.3 µM)
MIC [7]: 50 µg/mL (≈ 81.3 µM)
MIC [8]: 12.5 µg/mL (≈ 20.3 µM)

Cn1nnnc1SCC1=C(C(=O)O)N2C(=O)C(NC(=O)[C@H](NC(=O)c3cnccc3O)c3ccc(O)cc3)C2SC1 (stereo partly drawn) [Example 126, 7-[D-α-(4-Hydroxypyridine-3-carbonamido)-α-p-hydroxyphenylacetamido]-3-(1-methyltetrazol-5-yl)thiomethyl-3-cephem-4-carboxylic acid]
MIC [1]: 0.39 µg/mL (≈ 0.651 µM)
MIC [2]: 6.25 µg/mL (≈ 10.4 µM)
MIC ([3]; Escherichia coli NIHJ): 6.25 µg/mL (≈ 10.4 µM)
MIC [4, 9]: 12.5 µg/mL (≈ 20.9 µM)
MIC [5]: 0.2 µg/mL (≈ 0.334 µM)
MIC [6]: 6.25 µg/mL (≈ 10.4 µM)
MIC [7]: 100 µg/mL (≈ 167 µM)
MIC [8]: 12.5 µg/mL (≈ 20.9 µM)

Cc1nnc(SCC2=C(C(=O)O)N3C(=O)C(NC(=O)[C@H](NC(=O)c4ccnnc4O)c4ccc(O)cc4)C3SC2)s1 (stereo partly shown) [Example 127]
MIC [1]: 0.39 µg/mL (≈ 0.633 µM)
MIC [2]: 6.25 µg/mL (≈ 10.2 µM)
MIC ([3]; Escherichia coli NIHJ): 6.25 µg/mL (≈ 10.2 µM)
MIC [4, 9]: 6.25 µg/mL (≈ 10.2 µM)
MIC [5]: 0.2 µg/mL (≈ 0.325 µM)
MIC [6]: 6.25 µg/mL (≈ 10.2 µM)
MIC [7]: 50 µg/mL (≈ 81.2 µM)
MIC [8]: 12.5 µg/mL (≈ 20.3 µM)

Cn1nnnc1SCC1=C(C(=O)O)N2C(=O)C(NC(=O)[C@H](NC(=O)c3ccnnc3O)c3ccc(O)cc3)C2SC1 (stereo partly shown) [Example 128]
MIC [1]: 0.39 µg/mL (≈ 0.65 µM)
MIC [2]: 6.25 µg/mL (≈ 10.4 µM)
MIC ([3]; Escherichia coli NIHJ): 6.25 µg/mL (≈ 10.4 µM)
MIC [4, 9]: 6.25 µg/mL (≈ 10.4 µM)
MIC [5]: 0.39 µg/mL (≈ 0.65 µM)
MIC [6]: 6.25 µg/mL (≈ 10.4 µM)
MIC [7]: 50 µg/mL (≈ 83.4 µM)
MIC [8]: 12.5 µg/mL (≈ 20.8 µM)

Cc1nnc(SCC2=C(C(=O)O)N3C(=O)C(NC(=O)[C@H](NC(=O)c4cnc5cccnc5c4O)c4ccc(O)cc4)C3SC2)s1 (stereo partly shown) [Example 129]
MIC [1]: 0.78 µg/mL (≈ 1.17 µM)
MIC [2]: 3.13 µg/mL (≈ 4.7 µM)
MIC ([3]; Escherichia coli NIHJ): 1.56 µg/mL (≈ 2.34 µM)
MIC [4, 9]: 1.56 µg/mL (≈ 2.34 µM)
MIC [5]: 0.1 µg/mL (≈ 0.15 µM)
MIC [6]: 3.13 µg/mL (≈ 4.7 µM)
MIC [7]: 12.5 µg/mL (≈ 18.8 µM)
MIC [8]: 3.13 µg/mL (≈ 4.7 µM)

O=C(O)C1=C(CSc2nncs2)CSC2C(NC(=O)[C@H](NC(=O)c3cnc4cccnc4c3O)c3ccc(O)cc3)C(=O)N12 (stereo partly shown) [Example 130]
MIC [1]: 0.78 µg/mL (≈ 1.2 µM)
MIC [2]: 3.13 µg/mL (≈ 4.8 µM)
MIC ([3]; Escherichia coli NIHJ): 1.56 µg/mL (≈ 2.39 µM)
MIC [4, 9]: 1.56 µg/mL (≈ 2.39 µM)
MIC [5]: 0.1 µg/mL (≈ 0.153 µM)
MIC [6]: 3.13 µg/mL (≈ 4.8 µM)
MIC [7]: 12.5 µg/mL (≈ 19.2 µM)
MIC [8]: 3.13 µg/mL (≈ 4.8 µM)

Cn1nnnc1SCC1=C(C(=O)O)N2C(=O)C(NC(=O)[C@H](NC(=O)c3cnc4cccnc4c3O)c3ccc(O)cc3)C2SC1 (stereo partly shown) [Example 131]
MIC [1]: 0.78 µg/mL (≈ 1.2 µM)
MIC [2]: 3.13 µg/mL (≈ 4.82 µM)
MIC ([3]; Escherichia coli NIHJ): 1.56 µg/mL (≈ 2.4 µM)
MIC [4, 9]: 0.78 µg/mL (≈ 1.2 µM)
MIC [5]: 0.1 µg/mL (≈ 0.154 µM)
MIC [6]: 3.13 µg/mL (≈ 4.82 µM)
MIC [7]: 12.5 µg/mL (≈ 19.2 µM)
MIC [8]: 3.13 µg/mL (≈ 4.82 µM)

Cn1nnnc1SCC1=C(C(=O)O)N2C(=O)C(NC(=O)[C@H](NC(=O)c3cnc4cccnc4c3O)c3ccc(O)c(Cl)c3)C2SC1 (stereo partly shown) [Example 132]
MIC [1]: 0.78 µg/mL (≈ 1.14 µM)
MIC [2]: 3.13 µg/mL (≈ 4.58 µM)
MIC ([3]; Escherichia coli NIHJ): 3.13 µg/mL (≈ 4.58 µM)
MIC [4, 9]: 1.56 µg/mL (≈ 2.28 µM)
MIC [5]: 0.1 µg/mL (≈ 0.146 µM)
MIC [6]: 6.25 µg/mL (≈ 9.14 µM)
MIC [7]: 25 µg/mL (≈ 36.5 µM)
MIC [8]: 3.13 µg/mL (≈ 4.58 µM)

Cn1nnc(SCC2=C(C(=O)O)N3C(=O)C(NC(=O)[C@H](NC(=O)c4cnc5cccnc5c4O)c4ccc(O)cc4)C3SC2)n1 (stereo partly shown) [Example 133]
MIC [1]: 0.78 µg/mL (≈ 1.2 µM)
MIC [2]: 3.13 µg/mL (≈ 4.82 µM)
MIC ([3]; Escherichia coli NIHJ): 3.13 µg/mL (≈ 4.82 µM)
MIC [4, 9]: 1.56 µg/mL (≈ 2.4 µM)
MIC [5]: 0.1 µg/mL (≈ 0.154 µM)
MIC [6]: 3.13 µg/mL (≈ 4.82 µM)
MIC [7]: 25 µg/mL (≈ 38.5 µM)
MIC [8]: 3.13 µg/mL (≈ 4.82 µM)

O=C(O)C1=C(CSc2cnn[nH]2)CSC2C(NC(=O)[C@H](NC(=O)c3cnc4cccnc4c3O)c3ccc(O)cc3)C(=O)N12 (stereo partly shown) [Example 134]
MIC [1]: 0.78 µg/mL (≈ 1.23 µM)
MIC [2]: 3.13 µg/mL (≈ 4.93 µM)
MIC ([3]; Escherichia coli NIHJ): 3.13 µg/mL (≈ 4.93 µM)
MIC [4, 9]: 1.56 µg/mL (≈ 2.46 µM)
MIC [5]: 0.1 µg/mL (≈ 0.158 µM)
MIC [6]: 3.13 µg/mL (≈ 4.93 µM)
MIC [7]: 25 µg/mL (≈ 39.4 µM)
MIC [8]: 3.13 µg/mL (≈ 4.93 µM)

CC(=O)OCC1=C(C(=O)[O-])N2C(=O)C(NC(=O)C(NC(=O)c3cnc4nc(C)cnc4c3O)c3ccc(O)cc3)C2SC1.[Na+] (stereo not shown) [Example 136]
Minimum Inhibitory Concentration [1]: 0.78 µg/mL
Minimum Inhibitory Concentration [2]: 6.25 µg/mL
Minimum Inhibitory Concentration ([3]; Escherichia coli NIHJ): 3.13 µg/mL
Minimum Inhibitory Concentration [4]: 3.13 µg/mL
Minimum Inhibitory Concentration [5]: 0.78 µg/mL
Minimum Inhibitory Concentration [6]: 6.25 µg/mL
Minimum Inhibitory Concentration [7]: 100 µg/mL
Minimum Inhibitory Concentration [8]: 6.25 µg/mL

CSc1ncc2c(O)c(C(=O)NC(C(=O)NC3C(=O)N4C(C(=O)[O-])=C(COC(C)=O)CSC34)c3ccc(O)cc3)cnc2n1.[Na+] (stereo not shown) [Example 137]
Minimum Inhibitory Concentration [1]: 1.56 µg/mL
Minimum Inhibitory Concentration [2]: 12.5 µg/mL
Minimum Inhibitory Concentration ([3]; Escherichia coli NIHJ): 12.5 µg/mL
Minimum Inhibitory Concentration [4]: 12.5 µg/mL
Minimum Inhibitory Concentration [5]: 1.56 µg/mL
Minimum Inhibitory Concentration [6]: 12.5 µg/mL
Minimum Inhibitory Concentration [7]: 100 µg/mL
Minimum Inhibitory Concentration [8]: 50 µg/mL

CC(=O)OCC1=C(C(=O)[O-])N2C(=O)C(NC(=O)C(NC(=O)c3cnc4cccnc4c3O)c3cccc(O)c3)C2SC1.[Na+] (stereo not shown) [Example 138]
Minimum Inhibitory Concentration [1]: 0.78 µg/mL
Minimum Inhibitory Concentration [2]: 6.25 µg/mL
Minimum Inhibitory Concentration ([3]; Escherichia coli NIHJ): 3.13 µg/mL
Minimum Inhibitory Concentration [4]: 1.56 µg/mL
Minimum Inhibitory Concentration [5]: 0.78 µg/mL
Minimum Inhibitory Concentration [6]: 6.25 µg/mL
Minimum Inhibitory Concentration [7]: 50 µg/mL
Minimum Inhibitory Concentration [8]: 6.25 µg/mL
